Patent US20260256792A1, “TREATMENT OF CHRONIC SPONTANEOUS URTICARIA BY ADMINISTERING (R)-2-[3-[4-AMINO-3-(2-FLUORO-4-PHENOXY-PHENYL)PYRAZOLO[3,4-D]PYRIMIDIN-1-YL]PIPERIDINE-1-CARBONYL]-4-METHYL-4-[4-(OXETAN-3-YL)PIPERAZIN-1-YL]PENT-2-ENENITRILE” (priority 2023, published 2026)

Tested on: moderate-to-severe chronic spontaneous urticaria (CSU)
Assay: Phase 2 CSU study: itch severity score over 7 days (ISS7)
Format: in vivo, human
Conditions: for Non-responder n (%) (ISS7 reduction of 5 points or more) / OR for rilzabrutinib vs. placebo (ISS7 reduction of 5 points or more) / RRD (%) for rilzabrutinib vs. placebo (ISS7 reduction of 5 points or more) / Responder n (%) (ISS7 reduction of 5 points or more) / Imputed non-responder n (%) (ISS7 reduction of 5 points or more): ITT population
Text: The study comprises a 12 week, randomized, double-blind, placebo-controlled, multi-center, dose-ranging efficacy and safety phase, followed by a 40 week open label extension (OLE) phase (see FIG. 1). The study consists of three phases and an optional OLE phase. […] Clinically, CSU is characterized by the spontaneous and recurrent appearance of pruritic hives. The proposed primary endpoints were the UAS7 at Week 12 in EU and EU reference countries and the ISS7 in the US. Regardless of where a participant was from, all assessments were the same. The UAS7 score is a composite score containing both the HSS7 and the ISS7. This allowed a global assessment of the two key components of urticaria: hives and itch. […] The UAS is a validated PRO measure. […] The daily UAS scores range from 0 to 6 point/day. […] Patients were to complete the UAS using the e-diary. […] The following secondary endpoints were to be analyzed using the same approach as for the primary endpoint: • Change from baseline in UAS7 at Week 4 • Change from baseline in UAS7 at Week 12 (for US and US reference countries) • Change from baseline in ISS7 at Week 12 (except US and US reference countries) • Change from baseline in HSS7 at Week 12

Compound: CC(C)(C=C(C#N)C(=O)N1CCC[C@@H](n2nc(-c3ccc(Oc4ccccc4)cc3F)c3c(N)ncnc32)C1)N1CCN(C2COC2)CC1 [rilzabrutinib, (R)-2-[3-[4-amino-3-(2-fluoro-4-phenoxy-phenyl)pyrazolo[3,4-d]pyrimidin-1-yl]piperidine-1-carbonyl]-4-methyl-4-[4-(oxetan-3-yl)piperazin-1-yl]pent-2-enenitrile]
- Non-responder n (%) (ISS7 reduction of 5 points or more) (400 mg QPM, Week 4): 20 (52.6) n (%)
- OR for rilzabrutinib vs. placebo (ISS7 reduction of 5 points or more) (400 mg QPM, Week 4): 1.076
- RRD (%) for rilzabrutinib vs. placebo (ISS7 reduction of 5 points or more) (400 mg QPM, Week 4): 1.7%
- Responder n (%) (ISS7 reduction of 5 points or more) (400 mg QPM, Week 4): 18 (47.4) n (%)
- Non-responder n (%) (ISS7 reduction of 5 points or more) (400 mg QPM, Week 6): 20 (52.6) n (%)
- OR for rilzabrutinib vs. placebo (ISS7 reduction of 5 points or more) (400 mg QPM, Week 6): 1.066
- RRD (%) for rilzabrutinib vs. placebo (ISS7 reduction of 5 points or more) (400 mg QPM, Week 6): 1.5%
- Responder n (%) (ISS7 reduction of 5 points or more) (400 mg QPM, Week 6): 18 (47.4) n (%)
- Imputed non-responder n (%) (ISS7 reduction of 5 points or more) (400 mg QPM, Week 7): 6 (15.8) n (%)
- Non-responder n (%) (ISS7 reduction of 5 points or more) (400 mg QPM, Week 7): 19 (50.0) n (%)
- OR for rilzabrutinib vs. placebo (ISS7 reduction of 5 points or more) (400 mg QPM, Week 7): 1.138
- RRD (%) for rilzabrutinib vs. placebo (ISS7 reduction of 5 points or more) (400 mg QPM, Week 7): 3.1%
- Responder n (%) (ISS7 reduction of 5 points or more) (400 mg QPM, Week 7): 19 (50.0) n (%)
- Imputed non-responder n (%) (ISS7 reduction of 5 points or more) (400 mg QPM, Week 8): 7 (18.4) n (%)
- Non-responder n (%) (ISS7 reduction of 5 points or more) (400 mg QPM, Week 8): 20 (52.6) n (%)
- OR for rilzabrutinib vs. placebo (ISS7 reduction of 5 points or more) (400 mg QPM, Week 8): 0.836
- RRD (%) for rilzabrutinib vs. placebo (ISS7 reduction of 5 points or more) (400 mg QPM, Week 8): −4.5%
- Responder n (%) (ISS7 reduction of 5 points or more) (400 mg QPM, Week 8): 18 (47.4) n (%)
- Imputed non-responder n (%) (ISS7 reduction of 5 points or more) (400 mg QPM, Week 9): 6 (15.8) n (%)
- Non-responder n (%) (ISS7 reduction of 5 points or more) (400 mg QPM, Week 9): 18 (47.4) n (%)
- OR for rilzabrutinib vs. placebo (ISS7 reduction of 5 points or more) (400 mg QPM, Week 9): 1.294
- RRD (%) for rilzabrutinib vs. placebo (ISS7 reduction of 5 points or more) (400 mg QPM, Week 9): 5.8%
- Responder n (%) (ISS7 reduction of 5 points or more) (400 mg QPM, Week 9): 20 (52.6) n (%)
- Imputed non-responder n (%) (ISS7 reduction of 5 points or more) (400 mg QPM, Week 10): 6 (15.8) n (%)
- Non-responder n (%) (ISS7 reduction of 5 points or more) (400 mg QPM, Week 10): 14 (36.8) n (%)
- OR for rilzabrutinib vs. placebo (ISS7 reduction of 5 points or more) (400 mg QPM, Week 10): 1.593
- Responder n (%) (ISS7 reduction of 5 points or more) (400 mg QPM, Week 10): 24 (63.2) n (%)
- Imputed non-responder n (%) (ISS7 reduction of 5 points or more) (400 mg QPM, Week 11): 7 (18.4) n (%)
- Non-responder n (%) (ISS7 reduction of 5 points or more) (400 mg QPM, Week 11): 17 (44.7) n (%)
- OR for rilzabrutinib vs. placebo (ISS7 reduction of 5 points or more) (400 mg QPM, Week 11): 0.938
- RRD (%) for rilzabrutinib vs. placebo (ISS7 reduction of 5 points or more) (400 mg QPM, Week 11): −1.5%
- Responder n (%) (ISS7 reduction of 5 points or more) (400 mg QPM, Week 11): 21 (55.3) n (%)
- Imputed non-responder n (%) (ISS7 reduction of 5 points or more) (400 mg QPM, Week 12): 10 (26.3) n (%)
- Non-responder n (%) (ISS7 reduction of 5 points or more) (400 mg QPM, Week 12): 21 (55.3) n (%)
- OR for rilzabrutinib vs. placebo (ISS7 reduction of 5 points or more) (400 mg QPM, Week 12): 0.905
- RRD (%) for rilzabrutinib vs. placebo (ISS7 reduction of 5 points or more) (400 mg QPM, Week 12): −2.6%
- Responder n (%) (ISS7 reduction of 5 points or more) (400 mg QPM, Week 12): 17 (44.7) n (%)
- Imputed non-responder n (%) (ISS7 reduction of 5 points or more) (400 mg TID, Week 2): 0 n (%)
- Non-responder n (%) (ISS7 reduction of 5 points or more) (400 mg TID, Week 2): 13 (31.7) n (%)
- OR for rilzabrutinib vs. placebo (ISS7 reduction of 5 points or more) (400 mg TID, Week 2): 4.772
- RRD (%) for rilzabrutinib vs. placebo (ISS7 reduction of 5 points or more) (400 mg TID, Week 2): 35.9%
- Responder n (%) (ISS7 reduction of 5 points or more) (400 mg TID, Week 2): 28 (68.3) n (%)
- Imputed non-responder n (%) (ISS7 reduction of 5 points or more) (400 mg TID, Week 3): 0 n (%)
- Non-responder n (%) (ISS7 reduction of 5 points or more) (400 mg TID, Week 3): 12 (29.3) n (%)
- OR for rilzabrutinib vs. placebo (ISS7 reduction of 5 points or more) (400 mg TID, Week 3): 4.110
- RRD (%) for rilzabrutinib vs. placebo (ISS7 reduction of 5 points or more) (400 mg TID, Week 3): 37.3%
- Responder n (%) (ISS7 reduction of 5 points or more) (400 mg TID, Week 3): 29 (70.7) n (%)
- Imputed non-responder n (%) (ISS7 reduction of 5 points or more) (400 mg TID, Week 4): 3 (7.3) n (%)
- Non-responder n (%) (ISS7 reduction of 5 points or more) (400 mg TID, Week 4): 13 (31.7) n (%)
- OR for rilzabrutinib vs. placebo (ISS7 reduction of 5 points or more) (400 mg TID, Week 4): 2.155
- RRD (%) for rilzabrutinib vs. placebo (ISS7 reduction of 5 points or more) (400 mg TID, Week 4): 18.8%
- Responder n (%) (ISS7 reduction of 5 points or more) (400 mg TID, Week 4): 28 (68.3) n (%)
- Imputed non-responder n (%) (ISS7 reduction of 5 points or more) (400 mg TID, Week 5): 3 (7.3) n (%)
- Non-responder n (%) (ISS7 reduction of 5 points or more) (400 mg TID, Week 5): 11 (26.8) n (%)
- OR for rilzabrutinib vs. placebo (ISS7 reduction of 5 points or more) (400 mg TID, Week 5): 2.433
- RRD (%) for rilzabrutinib vs. placebo (ISS7 reduction of 5 points or more) (400 mg TID, Week 5): 20.9%
- Responder n (%) (ISS7 reduction of 5 points or more) (400 mg TID, Week 5): 30 (73.2) n (%)
- Imputed non-responder n (%) (ISS7 reduction of 5 points or more) (400 mg TID, Week 6): 5 (12.2) n (%)
- Non-responder n (%) (ISS7 reduction of 5 points or more) (400 mg TID, Week 6): 16 (39.0) n (%)
- OR for rilzabrutinib vs. placebo (ISS7 reduction of 5 points or more) (400 mg TID, Week 6): 1.574
- Responder n (%) (ISS7 reduction of 5 points or more) (400 mg TID, Week 6): 25 (61.0) n (%)
- Imputed non-responder n (%) (ISS7 reduction of 5 points or more) (400 mg TID, Week 7): 6 (14.6) n (%)
- Non-responder n (%) (ISS7 reduction of 5 points or more) (400 mg TID, Week 7): 14 (34.1) n (%)
- OR for rilzabrutinib vs. placebo (ISS7 reduction of 5 points or more) (400 mg TID, Week 7): 2.038
- RRD (%) for rilzabrutinib vs. placebo (ISS7 reduction of 5 points or more) (400 mg TID, Week 7): 16.8%
- Responder n (%) (ISS7 reduction of 5 points or more) (400 mg TID, Week 7): 27 (65.9) n (%)
- Imputed non-responder n (%) (ISS7 reduction of 5 points or more) (400 mg TID, Week 8): 8 (19.5) n (%)
- Non-responder n (%) (ISS7 reduction of 5 points or more) (400 mg TID, Week 8): 13 (31.7) n (%)
- OR for rilzabrutinib vs. placebo (ISS7 reduction of 5 points or more) (400 mg TID, Week 8): 1.839
- RRD (%) for rilzabrutinib vs. placebo (ISS7 reduction of 5 points or more) (400 mg TID, Week 8): 14.6%
- Responder n (%) (ISS7 reduction of 5 points or more) (400 mg TID, Week 8): 28 (68.3) n (%)
- Imputed non-responder n (%) (ISS7 reduction of 5 points or more) (400 mg TID, Week 9): 7 (17.1) n (%)
- Non-responder n (%) (ISS7 reduction of 5 points or more) (400 mg TID, Week 9): 12 (29.3) n (%)
- OR for rilzabrutinib vs. placebo (ISS7 reduction of 5 points or more) (400 mg TID, Week 9): 2.730
- RRD (%) for rilzabrutinib vs. placebo (ISS7 reduction of 5 points or more) (400 mg TID, Week 9): 22.5%
- Responder n (%) (ISS7 reduction of 5 points or more) (400 mg TID, Week 9): 29 (70.7) n (%)
- Imputed non-responder n (%) (ISS7 reduction of 5 points or more) (400 mg TID, Week 10): 7 (17.1) n (%)
- Non-responder n (%) (ISS7 reduction of 5 points or more) (400 mg TID, Week 10): 14 (34.1) n (%)
- OR for rilzabrutinib vs. placebo (ISS7 reduction of 5 points or more) (400 mg TID, Week 10): 1.669
- Responder n (%) (ISS7 reduction of 5 points or more) (400 mg TID, Week 10): 27 (65.9) n (%)
- Imputed non-responder n (%) (ISS7 reduction of 5 points or more) (400 mg TID, Week 11): 6 (14.6) n (%)
- Non-responder n (%) (ISS7 reduction of 5 points or more) (400 mg TID, Week 11): 12 (29.3) n (%)
- OR for rilzabrutinib vs. placebo (ISS7 reduction of 5 points or more) (400 mg TID, Week 11): 1.699
- Responder n (%) (ISS7 reduction of 5 points or more) (400 mg TID, Week 11): 29 (70.7) n (%)
- ISS7 % Change difference for rilzabrutinib vs. placebo LS Mean (95% CI) (ITT, 400 mg BID, Week 1): −23.55%
- ISS7 % Change from baseline LS Mean (SE) (ITT, 400 mg BID, Week 1): −34.02 (5.28) %
- ISS7 Change difference for rilzabrutinib vs. placebo LS Mean (95% CI) (ITT, 400 mg BID, Week 1): −3.23
- ISS7 Change from baseline LS Mean (SE) (ITT, 400 mg BID, Week 1): −5.23 (0.78)
- ISS7 Post-baseline Mean (SD) (ITT, 400 mg BID, Week 1): 10.65 (5.86)
- ISS7 % Change difference for rilzabrutinib vs. placebo LS Mean (95% CI) (ITT, 400 mg BID, Week 2): −16.63%
- ISS7 % Change from baseline LS Mean (SE) (ITT, 400 mg BID, Week 2): −36.11 (5.26) %
